Experimental data from US10335403B2, “Niacin formulation” (Zeenar Enterprises Pty Ltd., priority 2013, dated 2019).

Test system: PGE2 production in 3T3 cells
Test: PGE2 inhibition in 3T3 cells stimulated with calcium ionophore (Cayman PGE2 monoclonal EIA kit)
Assay type: cell-based
Details: Mus musculus, NIH3T3, at 0.488 μg/mL, relative to control cells not exposed, read-out: highest PGE2 inhibition observed
Procedure: As is known in the art, prostaglandin E2 (PGE2) activity can be used to measure anti-inflammatory activity of a substance. PGE2 inhibitory activity can be measured by the ability of test samples to inhibit PGE2 production in 3T3 cells when stimulated with calcium ionophore. As understood in the art, aspirin and ibuprofen may be included in the assay as a positive control. The in vitro production of PGE2 from 3T3 cells was measured using the Cayman Chemical Prostaglandin E2 monoclonal EIA (Enzyme Immuno Assay) kit. The cells were exposed to extracts derived from dunder and molasses and stimulated with calcium ionophore. The cell supernatants were then assayed for PGE2 production. The cell cytotoxicity of the samples was tested against 3T3 cells to confirm that the observed PGE2 inhibition was not due to cell cytotoxicity. Aspirin and ibuprofen were used as positive controls.

Compound `CC(C)Cc1ccc(C(C)C(=O)O)cc1` (stereo not shown) [ibuprofen] has an inhibition at 0.488 µg/mL of 42.1%.
